Reference: patent US20250186623A1, “EXPRESSION SYSTEM FOR THE TREATMENT OF CANCER” (FUNDACION PARA LA INVESTIGACION MEDICA APLICADA, priority 2022, published 2025)
Read-outs that look alike come from different tables or passages of the source.

Tests used:
[1] = tested on: MC38 cells; assay: Synergism proof of principle I: IFN-β mRNA by qPCR; type: cell-based, murine; settings: 8 Gy + DMXAA 50 μg/mL, without exogenic hSTINGmut
Description: To this end, MC38 cells received 8 Gy or 0 Gy as described above (example 7). Cells were seeded thereafter at 750 cells/mm^2 density and were then either mock-transduced or transduced with AAV8-hSTINGmut (1×10^5 viral genomes/cell). For cell transduction 8.5×10^9 viral genomes of AAV8-hSTINGmut from known concentration stock solutions, were resuspended in 50 μl RPMI 2% FBS. The resuspended viral particles were then added to the wells where the cells were seeded.

[2] = target: human STING (Homo sapiens, UniProt Q86WV6); settings: cited from earlier work
Chain of human STING (Q86WV6 whole entry H232R): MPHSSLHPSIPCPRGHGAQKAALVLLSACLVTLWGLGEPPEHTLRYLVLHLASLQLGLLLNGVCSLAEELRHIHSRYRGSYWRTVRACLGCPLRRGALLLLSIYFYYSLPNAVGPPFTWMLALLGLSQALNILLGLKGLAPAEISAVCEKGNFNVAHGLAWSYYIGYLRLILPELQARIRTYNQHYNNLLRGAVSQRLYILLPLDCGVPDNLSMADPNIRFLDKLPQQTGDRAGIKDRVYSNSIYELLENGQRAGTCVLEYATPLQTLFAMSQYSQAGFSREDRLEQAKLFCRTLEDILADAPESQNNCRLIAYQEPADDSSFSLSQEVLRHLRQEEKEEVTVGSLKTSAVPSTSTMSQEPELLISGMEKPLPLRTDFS

[3] = tested on: HEK293 cells; assay: Synergism proof of principle III: IFN-β and IL-12 mRNA by qPCR; type: cell-based, human; settings: for IFN-β expression levels: hSTINGmut expressing cells
Description: To this end, HEK293 cells received 8 Gy or 0 Gy as described above for MC38 cells and then were co-transduced with AAV8-hSTINGmut (1×10^5 viral genomes), AAV8-ISREx4-IL12miR122T (1×10^5 viral genomes) and/or AAV-GFP (1×10^5 viral genomes) as indicated in the figure.

[4] = human, in vivo; cited from earlier work
[5] = target: T1, hSTINGwt (Homo sapiens, UniProt Q86WV6, H232R); assay: DMXAA mediated expression of STING-derived cytokines (qPCR); type: cell-based; settings: other groups (hSTINGwt, luciferase, no vector); 50 μg/mL DMXAA
T1 construct: expressed in transfected cells
T1 sequence (Q86WV6 whole entry H232R): as above
Description: (§1) As a readout, the expression of STING-derived cytokines was measured by qPCR.
(§2) To this end, MC38 and Hep2G cells have been transduced with lentiviruses encoding luciferase, hSTINGwt, hSTINGmut to obtain stable cell lines as described above or were not transduced with any lentivirus (no vector). Respective cells were seeded in 24-well plates at a density of 750 cells/mm^2 in growth medium. […] Cells were harvested and prepared for qPCR measurements as described above. The expression of the cytokines IFN-β, TNF-α, IL-6, CXCL9 and CXCL10 were measured for either experimental group and expression levels relative to controls (no vector) were quantified.

[6] = target: T2, hSTINGmut (Homo sapiens, UniProt Q86WV6, G230I/H232R/Q266I/S162A); assay: as above; type: cell-based; settings: hSTINGmut-transduced MC38 and Hep2G cells; 50 μg/mL DMXAA, 3 h or 6 h
T2 construct: expressed in transfected cells
T2 sequence (Q86WV6 whole entry S162A/G230I/H232R/Q266I): as the sequence (Q86WV6 whole entry H232R) above, with S162A, G230I, Q266I counted along it
Description: as §1, §2

[7] = target: hSTING[R]-S162A/G230I/Q266I (Homo sapiens, UniProt Q86WV6, G230I/H232R/Q266I/S162A); settings: cited from earlier work
Chain of hSTING[R]-S162A/G230I/Q266I (Q86WV6 whole entry S162A/G230I/H232R/Q266I): as the sequence (Q86WV6 whole entry H232R) above, with S162A, G230I, Q266I counted along it

[8] = tested on: MC38 tumors; assay: Synergism of DMXAA and radiotherapy in a humanized mouse model in vivo, cytokine ELISA; design: species or system STING deficient C57 mice (STING KO); settings: 6 h after DMXAA 20 mg/kg, irradiated tumors
[9] = tested on: native non-transduced MC38 cells; assay: Synergism proof of principle IV: IFN-β protein by ELISA; type: cell-based, murine
Description: In addition to the previous experiments, the objective of the fourth experiment was to further investigate the observed synergism between the canonical and non-canonical STING.
To this end, native non-transduced MC38 cells received 0 Gy, 2 Gy or 8 Gy as described above. […] The IFN-p protein levels were determined by ELISA as described above.

[10] = tested on: MC38 cells; assay: Synergism proof of principle II: IL-12 mRNA by qPCR; type: cell-based, murine; settings: cells transduced with AAV8-hSTINGmut plus AAV8-ISREx4-IL12miR122T
Description: To this end, MC38 cells received 8 Gy or 0 Gy as described above and then were co-transduced with AAV8-hSTINGmut (1×10^5 viral genomes/cell) and AAV8-ISREx4-IL12miR122T (0.5×10^5 viral genomes/cell) as described above. For cell transduction, 8.5×10^9 viral genomes of AAV8-hSTINGmut and 4.25×10^9 viral genomes of AAV8-scIL12-miR122T, from known concentration stock solutions, were resuspended, each one, in 50 μl RPMI 2% FBS. The resuspended viral particles were then added to the wells where the cells were seeded. […] The IL-12 mRNA was determined by qPCR as described above (example 3) and expression levels were quantified in reference to non-transduced, non-irradiated cells treated with vehicle.

[11] = tested on: IFN-β protein levels in the serum
Description: C57 wild type mice, aged 6 to 10 weeks, were injected intravenously with an AAV8 vector encoding either hSTINGmut (AAV8-hSTINGmut, 1×10^11 viral genomes) or as a control GFP (AAV8-GFP, 1.5×10^11 viral genomes).

[12] = target: T2, hSTINGmut; assay: Time-course expression of STING-derived cytokines upon DMXAA treatment (qPCR); type: cell-based; settings: MC38 and Hep2G cells encoding hSTINGmut; 50 μg/mL DMXAA; any given timepoint
Description: The objective of this experiment was to examine the time-course of STING-derived cytokine expression upon DMXAA treatment. As a readout, the expression of STING-derived cytokines was measured by qPCR.
To this end, stable cell lines of MC38 and Hep2G cells encoding hSTINGmut have been obtained as described above. […] Cells were harvested and prepared for qPCR measurements as described above.

[13] = target: T3, murine STING (Mus musculus, UniProt Q3TBT3); settings: cited from earlier work
T3 sequence (Q3TBT3 1-378): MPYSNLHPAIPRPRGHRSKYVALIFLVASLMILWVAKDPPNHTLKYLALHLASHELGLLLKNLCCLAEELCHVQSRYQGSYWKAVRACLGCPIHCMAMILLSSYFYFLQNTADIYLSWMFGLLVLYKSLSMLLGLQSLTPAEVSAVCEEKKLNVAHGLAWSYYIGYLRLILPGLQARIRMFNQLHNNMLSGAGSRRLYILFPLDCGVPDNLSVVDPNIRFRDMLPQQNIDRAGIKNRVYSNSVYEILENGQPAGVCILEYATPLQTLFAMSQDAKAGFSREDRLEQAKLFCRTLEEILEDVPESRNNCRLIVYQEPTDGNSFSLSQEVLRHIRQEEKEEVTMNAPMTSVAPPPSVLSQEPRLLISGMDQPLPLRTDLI

For Cc1ccc2c(=O)c3cccc(CC(=O)O)c3oc2c1C [DMXAA, 5,6-Dimethylxanthenone-4-acetic acid], the “IFN-β mRNA expression” value [1] is listed as “increase in IFN-β expression”, the “activation of human STING” value [2] is listed as “unable to activate” and the IL-12 expression levels ([3]; ISREx4-IL12miR122T expressing cells, radiation plus further DMXAA treatment) is listed as “significant increase”. The IFN-β expression levels ([3]; DMXAA 50 μg/mL) was “upregulated”, the IFN-β expression levels ([3]; DMXAA plus additional irradiation 8 Gy) was “significantly increased” and the “efficacy in clinical trials” value [4] was “lack of efficacy”. For the same molecule, the “tolerability in clinical trials” value [4] was “well tolerated and only displayed minor side effects”, the “expression of the cytokines IFN-β, TNF-α, IL-6, CXCL9 and CXCL10” value [5] was “no significant alteration” and the “expression of the cytokines IFN-β, TNF-α, IL-6, CXCL9 and CXCL10” value [6] was “elevated”. For the same molecule, the “activation of hSTING[R]-S162A/G230I/Q266I” value [7] was “highly activated”, the “intratumor levels of IL-12” value [8] was “increased significantly” and the IFN-β production ([9]; 8 Gy plus DMXAA (different doses), 24 h or 48 h) was “exceeding the sum of those obtained with radiation alone and DMXAA alone”. For the same molecule, the “IFN-β production after a single dose of radiation” value ([9]; 8 Gy, DMXAA 50 μg/mL 24 h later, collected after another 24 h) was “enhanced”, the “IL-12 mRNA levels” value ([10]; 8 Gy) was “strong elevation” and the “IL-12 mRNA levels” value ([10]; non-irradiated) was “slight elevation”. For the same molecule, the “serum IFN-β levels in AAV8-GFP transduced control animals” value ([11]; 20 mg DMXAA/kg bodyweight i.p., after a first injection) was “elevation”, the toxicity and mortality ([11]; 20 mg DMXAA/kg, AAV8-hSTINGmut and AAV8-GFP mice, systemic STING stimulation) was “high toxicity and mortality” and the “serum IFN-β levels in AAV8-hSTINGmut transduced mice” value ([11]; 5 or 10 mg DMXAA/kg bodyweight i.p.) was “very low levels”. For the same molecule, the toxicity and mortality ([11]; 5 or 10 mg DMXAA/kg, AAV8-hSTINGmut transduced mice) was “neither cause significant toxicity nor mortality” and the “expression of STING-derived cytokines over time” value [12] was “increase in expression levels”.

In the case of O=C(O)Cc1cccc2c(=O)cc(-c3ccccc3)oc12 [FAA, flavone-8-acetic acid], the “activation of murine STING” value [13] is listed as “may also be activated”.
